The data set in a line: Pharmacokinetic study in rat. Format: in vivo, Sprague − Dawley (SD) rats. The following applies: SD rat. As for the experimental part: Six male Sprague − Dawley (SD) rats, randomly divided into two groups of 3 each, were treated with 4–49 C predissolved in 5% DMSO, 5% Solutol and 90% Saline by intravenous injection (iv, 5 mg/kg) and in 5% DMSO and 95% (0.5%MC) by intragastric administration (ig, 10 mg/kg), respectively. Blood samples (100 μL) were collected into K2-EDTA tubes by retro‐orbital bleeding under anaesthesia using isoflurane at 0.033, 0.083, 0.25, 0.5, 1, 2, 4, 7 and 24 h after dosing. And then plasma samples were obtained by centrifuging at 5000 rpm for 10 min at 4 °C and stored at −80 °C until analysis using HPLC–MS/MS.
To investigate the pharmacokinetic parameters in vivo, 4–49 C was selected for the pharmacokinetic experiments in SD rat model. The SD rats were divided into two groups (n = 3) and treated by iv at 5 mg/kg dose and by ig at 10 mg/kg dose, respectively. Plasma samples were collected up to 24 h postdosing and the concentration of 4–49 C was measured by using HPLC-MS/MS.

[1] abbreviates: male, Sprague-Dawley, iv, 5 mg/kg, plasma, n = 3, Mean ± SD.

SMILES strings stand for the structures.

As to `CCOc1ccccc1NC(=O)CSc1c[nH]c2ccc(OC)cc12` [4–49 C], for the setting “ig, 10 mg/kg, up to 24 h, HPLC-MS/MS (data not shown)”, the “concentration in plasma samples after ig administration” value is recorded as “no 4–49 C detected in plasma samples”. Moreover, the MRTIV (iv, 5 mg/kg, plasma, n = 3, Mean ± SD) worked out at 7.86 ± 0 min. Moreover, under setting [1], the AUC(0-inf) amounted to 70 ± 17 ng·h/mL, the AUC(0-t) is 69.3 ± 17 ng·h/mL, the concentration peaked (Cmax) at 454 ± 111 ng/mL and the half-life is 10 ± 18 min. The same molecule had a k el under setting [1] of 0.00119 s⁻¹.

Broadly, the AUC(0-inf) is total exposure, with the tail of the curve extrapolated. In general, AUC(0-t) refers to the area under the concentration-time curve up to a stated or last time point. Low values mean less exposure, high ones more exposure. One may read the Cmax as the maximum level reached in the sampled fluid or tissue. For orientation: half-life means how long it takes for the measured level to halve.

(Values after PMC9518288, “The mechanism and pharmacodynamics of 2-((1H-indol-3-yl)thio/sulfinyl)-N-pheny acetamide derivative as a novel inhibitor against human respiratory syncytial virus” (Journal of Enzyme Inhibition and Medicinal Chemistry, 2022).)
